Test results reported in US10238658B2, “1-pyrazolyl-3-(4-((2-anilinopyrimidin-4-yl) oxy) napththalen-1-yl) ureas as p38 MAP kinase inhibitors” (Respivert Limited, priority 2011, dated 2019).

Experiments:
Format in all cases: cell-based
TNFα [1] = assay: LPS-induced TNFα release in THP-1 cells; settings: Homo sapiens, THP-1, THP1 cells
Procedure: THP-1 cells, a human monocytic cell line, were stimulated with 3 μg/mL of LPS (from E. Coli; 0111:B4, Sigma) for 4 hr and the supernatant collected for determination of the TNFα concentration by sandwich ELISA (Duo-set, R&D systems). The inhibition of TNFα production was calculated at each concentration by comparison with vehicle control.

TNFα [2] = assay: LPS-induced TNFα release in d-U937 cells; settings: Homo sapiens, dU937, dU937 cells; relative to 10 μg/mL BIRB796; read-out: LPS Induced Release TNFα REC50 (dU937)
Procedure: (§1) U937 cells, a human monocytic cell line, were differentiated into macrophage-type cells by incubation with PMA (100 ng/mL) for 48 to 72 hr. Cells were pre-incubated with final concentrations of test compound for 2 hr and were then stimulated with LPS (0.1 μg/mL; from E. Coli: O111:B4, Sigma) for 4 hr. The supernatant was collected for determination of TNFα and IL-8 concentrations by sandwich ELISA (Duo-set, R&D systems). […] The relative 50% effective concentration (REC50) was determined from the resultant concentration-response curve. The inhibition of IL-8 production was calculated at each concentration of test compound by comparison with vehicle control.

IL-8 [3] = assay: LPS-induced IL-8 release in d-U937 cells; settings: Homo sapiens, dU937, dU937 cells
Procedure: as §1

ICAM-1 = assay: Poly I:C-induced ICAM-1 expression in BEAS2B cells; settings: Homo sapiens, BEAS-2B, read-out: PolyIC/ICAM1 IC50 (BEAS2B)
Procedure: Poly I:C was used in these studies as a simple, RNA virus mimic. Poly I:C-Oligofectamine mixture (1 μg/mL Poly I:C, ±2% Oligofectamine, 25 μL; Invivogen Ltd., San Diego, Calif., and Invitrogen, Carlsbad, Calif., respectively) was transfected into BEAS2B cells (human bronchial epithelial cells, ATCC). Cells were pre-incubated with final concentrations of test compounds for 2 hr and the level of ICAM-1 expression on the cell surface was determined by cell-based ELISA. At a time point 18 hr after poly I:C transfection, cells were fixed with 4% formaldehyde in PBS (100 μL) and then endogenous peroxidase was quenched by the addition of washing buffer (100 μL, 0.05% Tween in PBS: PBS-Tween) containing 0.1% sodium azide and 1% hydrogen peroxide. Cells were washed with wash-buffer (3×200 μL). and after blocking the wells with 5% milk in PBS-Tween (100 μL) for 1 hr, the cells were incubated with anti-human ICAM-1 antibody (50 μL; Cell Signaling Technology, Danvers, Mass.) in 1% BSA PBS overnight at 4° C.
The cells were washed with PBS-Tween (3×200 μL) and incubated with the secondary antibody (100 μL; HRP-conjugated anti-rabbit IgG, Dako Ltd., Glostrup, Denmark). The cells were then incubated with of substrate (50 μL) for 2-20 min, followed by the addition of stop solution (50 μL, 1N H2SO4). The ICAM-1 signal was detected by reading […] the absorbance at 450 nm against a reference wavelength of 655 nm using a spectrophotometer. The cells were then washed with PBS-Tween (3×200 μL) and total cell numbers in each well were determined by reading absorbance at 595 nm after Crystal Violet staining (50 μL of a 2% solution in PBS) and elution by 1% SDS solution (100 μL) in distilled water. The measured OD 450-655 readings were corrected for cell number by dividing with the OD595 reading in each well. The inhibition of ICAM-1 expression was calculated at each concentration of test compound by comparison with vehicle control.

IL-8 [4] = assay: Rhinovirus-induced IL-8 release in BEAS2B cells; settings: Homo sapiens, BEAS-2B, at 0.04 μg/mL; read-out: HRV IL-8 (BEAS2B) % inhibition
Procedure: Human rhinovirus RV16 was obtained from the American Type Culture Collection (Manassas, Va.). Viral stocks were generated by infecting Hela cells with HRV until 80% of the cells were cytopathic.
BEAS2B cells were infected with HRV at an MOI of 5 and incubated for 2 hr at 33° C. with gentle shaking for to promote absorption. The cells were then washed with PBS, fresh media added and the cells were incubated for a further 72 hr. The supernatant was collected for assay of IL-8 concentrations using a Duoset ELISA development kit (R&D systems, Minneapolis, Minn.). […]

HRV16 = HRV16 induced CPE in MRC5 cells; settings: Human rhinovirus sp., HRV16, MRC5, at 0.04 μg/mL; read-out: HRV CPE (MRC5) % inhibition
Procedure: The supernatants were aspirated, and then fresh media added followed by incubation for 4 days. Where appropriate, cells were pre-incubated with compound or DMSO for 2 hr, and the compounds and DMSO added again after washout of the virus.
The percentage inhibition for each well was calculated. The IC50 value was calculated from the concentration-response curve generated by the serial dilutions of the test compounds.

PBMC = assay: Cell mitosis assay; settings: Homo sapiens; for inhibition at 5 µg/mL: read-out: Mitosis Assay % inhibition in PBMC Cells at concn 5 μg/mL
Procedure: Peripheral blood mononucleocytes (PBMCs) from healthy subjects were separated from whole blood (Quintiles, London, UK) using a density gradient (Histopaque®-1077, Sigma-Aldrich, Poole, UK). The PBMCs (3 million cells per sample) were subsequently treated with 2% PHA (Sigma-Aldrich, Poole, UK) for 48 hr, followed by a 20 hr exposure to varying concentrations of test compounds. At 2 hr before collection, PBMCs were treated with demecolcine (0.1 μg/mL; Invitrogen, Paisley, UK,) to arrest cells in metaphase. To observe mitotic cells, PBMCs were permeabilised and fixed by adding Intraprep (50 μL; Beckman Coulter, France), and stained with anti-phospho-histone 3 ([…]; #9701; Cell Signalling, Danvers, Mass.) and propidium iodide (1 mg/mL; Sigma-Aldrich, Poole, UK,) as previously described (Muehlbauer P. A. and Schuler M. J., Mutation Research, 2003, 537:117-130). Fluorescence was observed using an ATTUNE flow cytometer (Invitrogen, Paisley, UK), gating for lymphocytes.

SMILES	IC50 (TNFα [1]) [nM]	EC50 (TNFα [2]) [nM]	IC50 (IL-8 [3]) [nM]	IC50 (ICAM-1) [nM]	inhibition at 0.04 µg/mL (IL-8 [4]) [%]	inhibition at 0.04 µg/mL (HRV16) [%]	inhibition at 5 µg/mL (PBMC) [%]	inhibition at 1 µg/mL (PBMC; read-out: Mitosis Assay % inhibition in PBMC Cells at concn 1 μg/mL) [%]
COc1ccccc1Nc1nccc(Oc2ccc(NC(=O)Nc3cc(C(C)(C)C)nn3-c3ccc(C)cc3)c3ccccc23)n1 [Example 5, 1-(3-(tert-butyl)-1-(p-tolyl)-1H-pyrazol-5-yl)-3-(4-((2-((2-methoxyphenyl)amino)pyrimidin-4-yl)oxy)naphthalen-1-yl)urea]	66	2.9	6.2	17	49	91		
COc1ccc(-n2nc(C(C)(C)C)cc2NC(=O)Nc2ccc(Oc3ccnc(Nc4ccccc4)n3)c3ccccc23)cc1 [Example 7, 1-(3-(tert-butyl)-1-(4-methoxyphenyl)-1H-pyrazol-5-yl)-3-(4-((2-(phenylamino)pyrimidin-4-yl)oxy)naphthalen-1-yl)urea]	10	1.7	2.1		100	≤ 0	10.2	
COc1ccc(Nc2nccc(Oc3ccc(NC(=O)Nc4cc(C(C)(C)C)nn4-c4ccc(C)cc4)c4ccccc34)n2)c(OC)c1 [Example 8, 1-(3-(tert-butyl)-1-(p-tolyl)-1H-pyrazol-5-yl)-3-(4-((2-((2,4-dimethoxyphenyl)amino)pyrimidin-4-yl)oxy)naphthalen-1-yl)urea]	225	227	235		100	100		15.6
Cc1ccc(-n2nc(C(C)(C)C)cc2NC(=O)Nc2ccc(Oc3ccnc(Nc4ccc(O)cc4)n3)c3ccccc23)cc1 [Example 9, 1-(3-(tert-butyl)-1-(p-tolyl)-1H-pyrazol-5-yl)-3-(4-((2-((4-hydroxyphenyl)amino)pyrimidin-4-yl)oxy)naphthalen-1-yl)urea]	1.3	1.7	2.2	3	100	100	50.3	
Cc1ccc(-n2nc(C(C)(C)C)cc2NC(=O)Nc2ccc(Oc3ccnc(Nc4ccc(Cl)cc4)n3)c3ccccc23)cc1 [Example 16, 1-(3-(tert-butyl)-1-(p-tolyl)-1H-pyrazol-5-yl)-3-(4-((2-((4-chlorophenyl)amino)pyrimidin-4-yl)oxy)naphthalen-1-yl)urea]	4.1	1.1	0.31	36	100	10		
Cc1ccc(-n2nc(C(C)(C)C)cc2NC(=O)Nc2ccc(Oc3ccnc(Nc4ccc(Cl)cc4C)n3)c3ccccc23)cc1 [Example 18, 1-(3-(tert-butyl)-1-(p-tolyl)-1H-pyrazol-5-yl)-3-(4-((2-((4-chloro-2-methylphenyl)amino)pyrimidin-4-yl)oxy)naphthalen-1-yl)urea]	157	13	15	28	100	≤ 0		
Cc1ccc(-n2nc(C(C)(C)C)cc2NC(=O)Nc2ccc(Oc3ccnc(Nc4ccc(O)cc4C)n3)c3ccccc23)cc1 [Example 24, 1-(3-(tert-butyl)-1-(p-tolyl)-1H-pyrazol-5-yl)-3-(4-((2-((4-hydroxy-2-methylphenyl)amino)pyrimidin-4-yl)oxy)naphthalen-1-yl)urea]	0.8	2.3	86	5	100	41		
Cc1ccc(-n2nc(C(C)(C)C)cc2NC(=O)Nc2ccc(Oc3ccnc(Nc4ccc(C)c(O)c4)n3)c3ccccc23)cc1 [Example 26, 1-(3-(tert-butyl)-1-(p-tolyl)-1H-pyrazol-5-yl)-3-(4-((2-((3-hydroxy-4-methylphenyl)amino)pyrimidin-4-yl)oxy)naphthalen-1-yl)urea]	1.9	4.1	6.6	8.4	100	69		
COc1ccc(Nc2nccc(Oc3ccc(NC(=O)Nc4cc(C(C)(C)C)nn4-c4ccc(C)cc4)c4ccccc34)n2)cc1OC [Example 27, 1-(3-(tert-butyl)-1-(p-tolyl)-1H-pyrazol-5-yl)-3-(4-((2-((3,4-dimethoxyphenyl)amino)pyrimidin-4-yl)oxy)naphthalen-1-yl)urea]	0.5	0.54	2		100	51	11.2	
Cc1ccc(-n2nc(C(C)(C)C)cc2NC(=O)Nc2ccc(Oc3ccnc(Nc4ccc(O)c(F)c4)n3)c3ccccc23)cc1 [Example 29, 1-(3-(tert-butyl)-1-(p-tolyl)-1H-pyrazol-5-yl)-3-(4-((2-((3-fluoro-4-hydroxyphenyl)amino)pyrimidin-4-yl)oxy)naphthalen-1-yl)urea]	1.6	11	2.3	2.8	100	13		
Cc1ccc(-n2nc(C(C)(C)C)cc2NC(=O)Nc2ccc(Oc3ccnc(Nc4ccc(O)cc4O)n3)c3ccccc23)cc1 [Example 32, 1-(3-(tert-butyl)-1-(p-tolyl)-1H-pyrazol-5-yl)-3-(4-((2-((2,4-dihydroxyphenyl)amino)pyrimidin-4-yl)oxy)naphthalen-1-yl)urea]	14	12	9.7		100	26	33	
COc1ccc(-n2nc(C(C)(C)C)cc2NC(=O)Nc2ccc(Oc3ccnc(Nc4ccc(O)cc4)n3)c3ccccc23)cc1 [Example 33, 1-(3-(tert-butyl)-1-(4-methoxyphenyl)-1H-pyrazol-5-yl)-3-(4-((2-((4-hydroxyphenyl)amino)pyrimidin-4-yl)oxy)naphthalen-1-yl)urea]	0.5	7.4	6.3		100	44	67.2	
